Results on four molecules are retold here after ChEMBL document CHEMBL5150077, “Identification of TUL01101: A Novel Potent and Selective JAK1 Inhibitor for the Treatment of Rheumatoid Arthritis” (J Med Chem, 2022).

The source made the active and inactive calls. The rule behind the calls is not given here.

In one data set the test system is Rattus norvegicus. The experiment in a line: Antiarthritic activity in adjuvant-induced arthritis rat model assessed as clinical score at 1 mg/kg, po administered twice a day for 14 days starting from day 13 to 27 post immunization and measured every 3 days a week. It is filed as functional. The conditions noted are these: time 14 day.
The subject of data set [1] is Mus musculus. The experiment in a line: Antiarthritic activity in collagen-induced rheumatoid arthritis DBA/1 mouse model assessed as recovery of body weight at 15 mg/kg, po BID administered for 14 days starting from 7 days before immunization to 21 days after immunization and measured on day 22 post immunization. The conditions noted are these: time 14.0 day. It is filed as functional, organism-based.

Data set [2] in a line: in vivo. The conditions noted are these: Sprague-Dawley, rat, po, 10 mg/kg.
For data set [3], the target named is CDK2/Cyclin A2 (Homo sapiens) (UniProt P24941+P20248). Kind of data set: Inhibition of human CDK2/Cyclin A assessed as residual activity at 30 uM relative to control. It is filed as protein-complex assay.
In data set [4] the target is [Pyruvate dehydrogenase (acetyl-transferring)] kinase isozyme 1, mitochondrial (Homo sapiens) (UniProt Q15118). Kind of data set: Inhibition of human PDK1 assessed as residual activity at 30 uM relative to control.
Data set [5] concerns the target Tyrosine-protein kinase SYK (Homo sapiens) (UniProt P43405). Kind of data set: Inhibition of human SYK assessed as residual activity at 30 uM relative to control.
The target of data set [6] is Platelet-derived growth factor receptor beta (Homo sapiens) (UniProt P09619). The experiment in a line: Inhibition of human PDGFRbeta assessed as residual activity at 30 uM relative to control.
The target in data set [7] is Mitogen-activated protein kinase 1 (Homo sapiens) (UniProt P28482). Kind of data set: Inhibition of human MAPK1 assessed as residual activity at 30 uM relative to control.
Data set [8] deals with Serine/threonine-protein kinase MAK (Homo sapiens) (UniProt P20794). The experiment in a line: Inhibition of human MAK assessed as residual activity at 30 uM relative to control.
Data set [9] deals with Mus musculus. The experiment in a line: Antiarthritic activity in collagen-induced rheumatoid arthritis DBA/1 mouse model assessed as reduction in clinical score AUC at 15 mg/kg, po BID administered for 14 days starting from 7 days before immunization to 21 days after immunization and measured on day 41 post immunization. It is filed as functional, organism-based. The conditions noted are these: time 14.0 day.

The target in data set [10] is High affinity nerve growth factor receptor (Homo sapiens) (UniProt P04629). Kind of data set: Inhibition of human TRK assessed as residual activity at 30 uM relative to control.
Data set [11] in a line: Toxicity in rat assessed as reduction in body weight at 10 mg/kg/day, po administered via gavage once a day pretreated for 9 weeks prior to co-cage and measured on day 84 relative to control. It is filed as organism-based. Also noted: scale not given: the % may be the effect or the level left. The conditions noted are these: in vivo, 2016 h, time 84 day.
A short description of data set [12]: AUC in C57BL/6 mouse at 15 mg/kg, po measured for 24 hrs by LC/MS/MS analysis. It is filed as ADME, organism-based. Also noted: dose 15 mg/kg, time 24 hrs, route po. The conditions noted are these: in vivo.
A short description of data set [13]: in vivo. The conditions noted are these: C57BL/6, mouse, po, 15 mg/kg.
For a further data set, the target named is Cytochrome P450 2D6 (Homo sapiens, UniProt P10635). The experiment in a line: Inhibition of CYP2D6 in human liver microsomes incubated in presence NADPH by LC-MS/MS analysis. On the technique in general: Microsomes from liver hold many membrane-bound enzymes, among them those of drug oxidation.
The target of data set [14] is T1, Tyrosine-protein kinase JAK3 (Homo sapiens, UniProt P52333).
T1 sequence (P52333 whole entry): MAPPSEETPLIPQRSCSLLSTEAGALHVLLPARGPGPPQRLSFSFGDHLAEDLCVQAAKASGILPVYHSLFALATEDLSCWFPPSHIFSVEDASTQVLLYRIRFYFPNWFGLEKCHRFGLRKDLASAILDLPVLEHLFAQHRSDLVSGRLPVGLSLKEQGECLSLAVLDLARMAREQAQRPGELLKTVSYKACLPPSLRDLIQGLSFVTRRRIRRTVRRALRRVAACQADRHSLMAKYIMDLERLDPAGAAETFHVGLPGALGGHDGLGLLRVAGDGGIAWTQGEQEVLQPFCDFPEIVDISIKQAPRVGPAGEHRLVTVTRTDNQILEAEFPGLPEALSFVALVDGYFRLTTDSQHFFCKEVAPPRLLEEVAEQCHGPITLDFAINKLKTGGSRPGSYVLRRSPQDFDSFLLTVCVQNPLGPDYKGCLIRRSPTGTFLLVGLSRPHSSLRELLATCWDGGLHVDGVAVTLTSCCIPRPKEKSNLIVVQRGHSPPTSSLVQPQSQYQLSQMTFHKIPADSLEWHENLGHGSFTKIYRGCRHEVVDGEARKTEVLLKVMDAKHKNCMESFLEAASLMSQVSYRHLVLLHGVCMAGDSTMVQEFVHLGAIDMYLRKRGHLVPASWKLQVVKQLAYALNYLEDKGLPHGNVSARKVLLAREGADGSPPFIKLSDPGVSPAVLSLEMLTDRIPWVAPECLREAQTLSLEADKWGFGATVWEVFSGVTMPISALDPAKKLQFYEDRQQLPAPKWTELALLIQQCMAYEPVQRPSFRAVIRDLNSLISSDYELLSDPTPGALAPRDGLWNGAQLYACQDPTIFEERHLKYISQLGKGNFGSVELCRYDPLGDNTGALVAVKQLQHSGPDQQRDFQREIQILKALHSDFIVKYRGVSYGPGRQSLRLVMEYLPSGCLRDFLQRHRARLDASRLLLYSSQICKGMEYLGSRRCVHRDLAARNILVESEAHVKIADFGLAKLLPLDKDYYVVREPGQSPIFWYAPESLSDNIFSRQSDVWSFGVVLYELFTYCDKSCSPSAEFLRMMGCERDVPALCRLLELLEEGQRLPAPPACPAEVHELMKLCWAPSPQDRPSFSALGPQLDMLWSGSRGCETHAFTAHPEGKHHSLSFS
The experiment in a line: Inhibition of recombinant human JAK3 using GGEEEEYFELVKKKK as substrate incubated for 40 mins in presence of Mg/ATP mixture by [gamma p33]-ATP based scintillation counting method.

Data set [15] is described as follows: in vivo. The conditions noted are these: C57BL/6, mouse, po, 15 mg/kg. This is another data set of the same source.
Another data set deals with T2, Cytochrome P450 2B6 (Homo sapiens, UniProt P20813).
T2 sequence (P20813 whole entry): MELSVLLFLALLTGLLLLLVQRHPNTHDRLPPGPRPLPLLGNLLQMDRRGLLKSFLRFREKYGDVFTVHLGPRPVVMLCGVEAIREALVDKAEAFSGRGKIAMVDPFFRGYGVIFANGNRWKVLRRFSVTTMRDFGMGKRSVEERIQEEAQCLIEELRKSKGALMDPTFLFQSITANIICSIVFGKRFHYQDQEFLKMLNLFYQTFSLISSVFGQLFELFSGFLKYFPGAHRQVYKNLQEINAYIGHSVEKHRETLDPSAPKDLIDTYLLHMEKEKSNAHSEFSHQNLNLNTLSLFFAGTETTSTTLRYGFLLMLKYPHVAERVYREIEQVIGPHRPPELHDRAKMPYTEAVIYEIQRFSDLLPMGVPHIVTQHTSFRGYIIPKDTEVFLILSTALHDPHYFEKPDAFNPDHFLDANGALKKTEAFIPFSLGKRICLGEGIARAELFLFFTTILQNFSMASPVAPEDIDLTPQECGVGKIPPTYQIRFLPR
Kind of data set: Inhibition of CYP2B6 in human liver microsomes incubated in presence NADPH by LC-MS/MS analysis.

Chain of Cytochrome P450 2D6 (P10635 whole entry): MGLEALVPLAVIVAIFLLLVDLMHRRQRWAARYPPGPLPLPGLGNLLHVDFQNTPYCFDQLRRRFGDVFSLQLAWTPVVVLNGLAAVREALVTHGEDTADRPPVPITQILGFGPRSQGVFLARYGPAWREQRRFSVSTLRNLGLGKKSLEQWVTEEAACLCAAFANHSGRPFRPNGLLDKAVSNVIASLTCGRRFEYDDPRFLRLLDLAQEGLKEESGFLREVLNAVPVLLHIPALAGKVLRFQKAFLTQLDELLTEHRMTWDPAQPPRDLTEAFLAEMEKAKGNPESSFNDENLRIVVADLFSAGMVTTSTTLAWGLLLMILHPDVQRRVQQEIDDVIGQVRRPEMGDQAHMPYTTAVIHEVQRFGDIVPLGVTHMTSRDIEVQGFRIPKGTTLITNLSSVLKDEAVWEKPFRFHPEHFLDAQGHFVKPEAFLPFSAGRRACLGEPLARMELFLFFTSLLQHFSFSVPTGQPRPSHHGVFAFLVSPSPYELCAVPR
Chain of High affinity nerve growth factor receptor (Homo sapiens) (P04629 33-796 limits assumed): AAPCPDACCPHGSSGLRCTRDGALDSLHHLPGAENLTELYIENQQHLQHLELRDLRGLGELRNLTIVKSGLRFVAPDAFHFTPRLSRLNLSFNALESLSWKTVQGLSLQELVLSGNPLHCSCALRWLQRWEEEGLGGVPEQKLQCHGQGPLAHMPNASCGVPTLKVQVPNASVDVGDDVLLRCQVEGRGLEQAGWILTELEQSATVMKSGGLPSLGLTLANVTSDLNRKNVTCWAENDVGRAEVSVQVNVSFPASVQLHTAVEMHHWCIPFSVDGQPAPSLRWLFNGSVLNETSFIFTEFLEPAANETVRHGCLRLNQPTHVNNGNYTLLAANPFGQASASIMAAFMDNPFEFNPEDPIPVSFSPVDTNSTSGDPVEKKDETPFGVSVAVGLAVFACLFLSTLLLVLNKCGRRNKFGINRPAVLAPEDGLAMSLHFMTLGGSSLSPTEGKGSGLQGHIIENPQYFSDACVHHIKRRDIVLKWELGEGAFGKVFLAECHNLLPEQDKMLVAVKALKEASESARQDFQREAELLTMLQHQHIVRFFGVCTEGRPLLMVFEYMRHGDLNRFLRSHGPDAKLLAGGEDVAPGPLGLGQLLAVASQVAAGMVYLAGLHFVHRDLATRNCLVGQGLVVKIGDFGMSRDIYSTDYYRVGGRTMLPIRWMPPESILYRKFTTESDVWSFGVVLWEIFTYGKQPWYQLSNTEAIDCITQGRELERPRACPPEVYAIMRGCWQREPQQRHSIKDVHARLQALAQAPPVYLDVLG
Chain of Platelet-derived growth factor receptor beta (Homo sapiens) (P09619 whole entry): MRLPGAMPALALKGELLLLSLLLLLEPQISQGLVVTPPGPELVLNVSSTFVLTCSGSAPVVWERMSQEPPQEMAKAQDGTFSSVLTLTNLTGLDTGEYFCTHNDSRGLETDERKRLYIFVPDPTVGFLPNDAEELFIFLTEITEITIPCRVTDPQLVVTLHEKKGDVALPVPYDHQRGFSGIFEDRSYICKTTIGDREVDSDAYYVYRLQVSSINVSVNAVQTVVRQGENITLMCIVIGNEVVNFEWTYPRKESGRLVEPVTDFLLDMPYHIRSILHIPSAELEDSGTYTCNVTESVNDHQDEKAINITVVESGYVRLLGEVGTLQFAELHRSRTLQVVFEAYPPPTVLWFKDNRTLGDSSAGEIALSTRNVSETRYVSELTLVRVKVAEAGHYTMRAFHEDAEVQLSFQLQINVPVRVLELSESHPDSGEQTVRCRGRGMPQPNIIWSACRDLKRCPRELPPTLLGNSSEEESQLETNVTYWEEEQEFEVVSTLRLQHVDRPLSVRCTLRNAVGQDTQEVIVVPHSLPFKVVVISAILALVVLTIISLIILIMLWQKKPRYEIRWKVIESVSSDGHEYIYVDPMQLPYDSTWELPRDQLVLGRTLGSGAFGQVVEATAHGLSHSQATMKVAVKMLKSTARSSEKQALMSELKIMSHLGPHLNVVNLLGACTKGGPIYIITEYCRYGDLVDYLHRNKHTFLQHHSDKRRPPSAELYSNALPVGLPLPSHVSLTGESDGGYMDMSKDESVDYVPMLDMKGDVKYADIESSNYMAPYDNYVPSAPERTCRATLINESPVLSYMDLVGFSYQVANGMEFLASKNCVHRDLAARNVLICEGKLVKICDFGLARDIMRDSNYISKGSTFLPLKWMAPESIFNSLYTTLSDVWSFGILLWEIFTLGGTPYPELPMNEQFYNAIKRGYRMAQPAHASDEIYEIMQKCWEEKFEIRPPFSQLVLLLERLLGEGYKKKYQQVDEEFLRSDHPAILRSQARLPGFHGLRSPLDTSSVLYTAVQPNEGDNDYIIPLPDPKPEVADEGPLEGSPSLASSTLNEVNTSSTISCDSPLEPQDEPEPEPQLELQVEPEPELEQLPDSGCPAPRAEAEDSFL
Chain of Mitogen-activated protein kinase 1 (Homo sapiens) (P28482 whole entry): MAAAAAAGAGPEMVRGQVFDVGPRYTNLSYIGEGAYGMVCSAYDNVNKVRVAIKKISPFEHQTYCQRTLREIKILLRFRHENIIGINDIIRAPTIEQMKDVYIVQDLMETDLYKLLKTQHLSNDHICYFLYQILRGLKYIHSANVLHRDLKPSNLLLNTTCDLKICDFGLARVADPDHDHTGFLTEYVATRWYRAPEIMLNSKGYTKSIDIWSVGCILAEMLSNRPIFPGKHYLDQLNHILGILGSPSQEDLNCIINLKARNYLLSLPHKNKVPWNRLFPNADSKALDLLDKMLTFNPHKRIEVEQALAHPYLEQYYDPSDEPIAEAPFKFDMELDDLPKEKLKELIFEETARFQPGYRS
Chain of Serine/threonine-protein kinase MAK (Homo sapiens) (P20794 whole entry): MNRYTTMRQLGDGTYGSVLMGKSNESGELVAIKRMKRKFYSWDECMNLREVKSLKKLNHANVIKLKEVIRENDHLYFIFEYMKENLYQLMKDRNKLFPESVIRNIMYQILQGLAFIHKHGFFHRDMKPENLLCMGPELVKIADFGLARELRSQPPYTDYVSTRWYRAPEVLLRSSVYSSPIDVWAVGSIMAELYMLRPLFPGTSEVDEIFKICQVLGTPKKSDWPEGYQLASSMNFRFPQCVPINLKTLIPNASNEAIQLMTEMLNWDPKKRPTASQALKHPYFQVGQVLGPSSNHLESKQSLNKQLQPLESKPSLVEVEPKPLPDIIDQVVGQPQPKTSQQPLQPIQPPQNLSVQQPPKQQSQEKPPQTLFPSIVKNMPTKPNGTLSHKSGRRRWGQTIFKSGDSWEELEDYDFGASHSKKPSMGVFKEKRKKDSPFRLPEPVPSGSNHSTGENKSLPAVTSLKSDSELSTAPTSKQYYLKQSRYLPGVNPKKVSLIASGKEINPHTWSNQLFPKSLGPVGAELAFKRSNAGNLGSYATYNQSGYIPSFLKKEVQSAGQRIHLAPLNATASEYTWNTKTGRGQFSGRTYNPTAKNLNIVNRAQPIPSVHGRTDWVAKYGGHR

Consider `O=C(Nc1nc2cccc(C3CCC4(CC3)CN(C(=O)[C@@H]3CC3(F)F)C4)n2n1)C1CC1`, for which the Activity is 5.4 with Rattus norvegicus; 66% in data set [3]; 80% in [4]; 88% in data set [5]; 85% in [6]; 104% in data set [7]. Moreover, the Activity in [8] was 104%; in data set [10], 89%; in data set [11] it was 5.53%. The outcome in the data set on Mus musculus [1] and in the data set with Mus musculus [9] was Active. Also, the bioavailability at 24 h in “in vivo [2]” stood at 121%.
Broadly, the AUC is the area under the concentration-time curve, a measure of exposure. What is called Cmax is the peak of the concentration-time curve. As a reminder, the IC50 is the midpoint of a concentration-inhibition curve. `O=C(Nc1nc2cccc(C3CCC4(CC3)CCN(C(=O)[C@@H]3CC3(F)F)CC4)n2n1)C1CC1`: the AUC at 24 h in data set [12] was determined as 18 µM·h. Further, the outcome with Mus musculus [1] and in the data set with Mus musculus [9] was Active. The molecule also registered a Cmax at 24 h in “in vivo [13]” of 7.38 µM. The IC50 on Cytochrome P450 2D6 was over 100 µM; in data set [14], 1 µM; on Cytochrome P450 2B6, over 100 µM. Moreover, the bioavailability at 24 h in “in vivo [15]” was determined as 50.1%.
As for `O=C(Nc1nc2cccc(C3CCC4(CC3)CCN(C(=O)[C@@H]3CC3(F)F)C4)n2n1)C1CC1` (some centres undefined), the IC50 on Cytochrome P450 2D6 is over 100 µM; in data set [14] it was 5.76 µM; against Cytochrome P450 2B6, over 100 µM.
In turn, `O=C(Nc1nc2cccc([C@H]3CC[C@@H](NC(=O)[C@@H]4CC4(F)F)CC3)n2n1)C1CC1` had an AUC at 24 h in data set [12] of 54.1 µM·h. In “in vivo [13]”, the Cmax at 24 h was 25.7 µM. The IC50 was over 100 µM against Cytochrome P450 2D6, 0.957 µM in data set [14] and over 100 µM against Cytochrome P450 2B6. The bioavailability at 24 h in “in vivo [15]” worked out at 66.6%.
